Measurements published in PubChem BioAssay AID651981 (The Scripps Research Institute Molecular Screening Center, 2013).
Calls of active or inactive are those of the source. The rule behind the calls is not given here.

What was measured:
Assay in all cases: PubChem AID 651981
AADACL1 = conditions: BW5147 mouse T-cell proteome, ABPP-SILAC LC-MS ratio, at 1 µM, hits give low values
ABHD12 = conditions: BW5147 mouse T-cell proteome, ABPP-SILAC LC-MS ratio, at 1 µM, hits give low values
ACOT1 = conditions: BW5147 mouse T-cell proteome, ABPP-SILAC LC-MS ratio, at 1 µM, hits give low values
ACOT2 = conditions: BW5147 mouse T-cell proteome, ABPP-SILAC LC-MS ratio, at 1 µM, hits give low values
APEH = conditions: BW5147 mouse T-cell proteome, ABPP-SILAC LC-MS ratio, at 1 µM, hits give low values
[1] = target: Acyl-protein thioesterase 1 (Mus musculus) (UniProt P97823); conditions: BW5147 mouse T-cell proteome, ABPP-SILAC LC-MS ratio; LYPLA1; at 1 µM; hits give low values
Sequence of Acyl-protein thioesterase 1 (Mus musculus) (P97823 whole entry, looked up): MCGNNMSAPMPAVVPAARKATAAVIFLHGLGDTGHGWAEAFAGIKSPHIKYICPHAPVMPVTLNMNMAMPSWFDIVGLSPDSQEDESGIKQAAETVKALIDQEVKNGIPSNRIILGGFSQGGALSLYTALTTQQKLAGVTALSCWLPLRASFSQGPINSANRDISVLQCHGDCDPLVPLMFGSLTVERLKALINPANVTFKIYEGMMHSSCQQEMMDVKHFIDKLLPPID

DPP4 = conditions: BW5147 mouse T-cell proteome, ABPP-SILAC LC-MS ratio, at 1 µM, hits give low values
DPP8 = conditions: BW5147 mouse T-cell proteome, ABPP-SILAC LC-MS ratio, at 1 µM, hits give low values
DPP9 = conditions: BW5147 mouse T-cell proteome, ABPP-SILAC LC-MS ratio, at 1 µM, hits give low values
ESD = conditions: BW5147 mouse T-cell proteome, ABPP-SILAC LC-MS ratio, at 1 µM, hits give low values
FAAH = conditions: BW5147 mouse T-cell proteome, ABPP-SILAC LC-MS ratio, at 1 µM, hits give low values
FASN = conditions: BW5147 mouse T-cell proteome, ABPP-SILAC LC-MS ratio, at 1 µM, hits give low values
LIPE = conditions: BW5147 mouse T-cell proteome, ABPP-SILAC LC-MS ratio, at 1 µM, hits give low values
LYPLA2 = conditions: BW5147 mouse T-cell proteome, ABPP-SILAC LC-MS ratio, at 1 µM, hits give low values
[2] = target: Monoacylglycerol lipase ABHD6 (Mus musculus) (UniProt Q8R2Y0); conditions: BW5147 mouse T-cell proteome, ABPP-SILAC LC-MS ratio, at 1 µM, hits give low values
Sequence of Monoacylglycerol lipase ABHD6 (Mus musculus) (Q8R2Y0 whole entry, looked up): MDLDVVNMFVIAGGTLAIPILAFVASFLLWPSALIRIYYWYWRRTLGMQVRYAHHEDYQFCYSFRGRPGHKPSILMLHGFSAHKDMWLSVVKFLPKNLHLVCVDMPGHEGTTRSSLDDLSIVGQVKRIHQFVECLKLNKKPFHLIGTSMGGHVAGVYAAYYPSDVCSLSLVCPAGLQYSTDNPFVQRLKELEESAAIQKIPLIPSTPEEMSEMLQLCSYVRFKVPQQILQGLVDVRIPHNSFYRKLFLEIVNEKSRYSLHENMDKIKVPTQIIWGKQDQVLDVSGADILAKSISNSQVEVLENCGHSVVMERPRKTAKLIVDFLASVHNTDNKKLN

PAFAH1B2 = conditions: BW5147 mouse T-cell proteome, ABPP-SILAC LC-MS ratio, at 1 µM, hits give low values
PAFAH1B3 = conditions: BW5147 mouse T-cell proteome, ABPP-SILAC LC-MS ratio, at 1 µM, hits give low values
PNPLA6 = conditions: BW5147 mouse T-cell proteome, ABPP-SILAC LC-MS ratio, at 1 µM, hits give low values
PNPLA7 = conditions: BW5147 mouse T-cell proteome, ABPP-SILAC LC-MS ratio, at 1 µM, hits give low values
PPME1 = conditions: BW5147 mouse T-cell proteome, ABPP-SILAC LC-MS ratio, at 1 µM, hits give low values
PRCP = conditions: BW5147 mouse T-cell proteome, ABPP-SILAC LC-MS ratio, at 1 µM, hits give low values
[3] = target: Platelet-activating factor acetylhydrolase 2, cytoplasmic (Mus musculus) (UniProt Q8VDG7); conditions: BW5147 mouse T-cell proteome, ABPP-SILAC LC-MS ratio; PAFAH2; at 1 µM; hits give low values
Sequence of Platelet-activating factor acetylhydrolase 2, cytoplasmic (Mus musculus) (Q8VDG7 whole entry, looked up): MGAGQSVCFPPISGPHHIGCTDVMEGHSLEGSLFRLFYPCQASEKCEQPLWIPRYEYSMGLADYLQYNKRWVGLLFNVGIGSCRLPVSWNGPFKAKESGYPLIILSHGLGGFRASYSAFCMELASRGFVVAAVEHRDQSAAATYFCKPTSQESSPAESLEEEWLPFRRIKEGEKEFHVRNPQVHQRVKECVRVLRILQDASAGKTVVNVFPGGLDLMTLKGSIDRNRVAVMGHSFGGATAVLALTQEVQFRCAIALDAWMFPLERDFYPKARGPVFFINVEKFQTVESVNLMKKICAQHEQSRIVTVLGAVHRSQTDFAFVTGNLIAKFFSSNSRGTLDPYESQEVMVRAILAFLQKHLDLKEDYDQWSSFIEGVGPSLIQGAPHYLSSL

[4] = target: Prolyl endopeptidase (Mus musculus) (UniProt Q9QUR6); conditions: BW5147 mouse T-cell proteome, ABPP-SILAC LC-MS ratio; PREP; at 1 µM; hits give low values
Sequence of Prolyl endopeptidase (Mus musculus) (Q9QUR6 whole entry, looked up): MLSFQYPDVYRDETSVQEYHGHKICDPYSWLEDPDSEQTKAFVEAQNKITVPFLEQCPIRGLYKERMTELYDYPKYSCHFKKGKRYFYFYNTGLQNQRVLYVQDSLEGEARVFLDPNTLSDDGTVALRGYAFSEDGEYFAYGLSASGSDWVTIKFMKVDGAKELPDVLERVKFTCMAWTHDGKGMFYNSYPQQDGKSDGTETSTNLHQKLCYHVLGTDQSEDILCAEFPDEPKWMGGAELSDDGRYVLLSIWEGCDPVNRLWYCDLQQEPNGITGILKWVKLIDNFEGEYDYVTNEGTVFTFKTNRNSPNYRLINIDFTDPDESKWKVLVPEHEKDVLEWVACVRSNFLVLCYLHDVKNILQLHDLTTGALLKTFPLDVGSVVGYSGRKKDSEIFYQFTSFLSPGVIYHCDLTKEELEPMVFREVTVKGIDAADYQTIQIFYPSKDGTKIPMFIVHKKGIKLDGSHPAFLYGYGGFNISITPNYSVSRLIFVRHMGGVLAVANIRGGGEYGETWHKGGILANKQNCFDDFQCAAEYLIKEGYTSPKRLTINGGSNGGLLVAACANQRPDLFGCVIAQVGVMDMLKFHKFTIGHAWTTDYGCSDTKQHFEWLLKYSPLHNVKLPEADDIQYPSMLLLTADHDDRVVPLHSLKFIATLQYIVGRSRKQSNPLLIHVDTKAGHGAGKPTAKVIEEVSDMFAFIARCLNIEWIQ

SEC23IP = conditions: BW5147 mouse T-cell proteome, ABPP-SILAC LC-MS ratio, at 1 µM, hits give low values
TPP2 = conditions: BW5147 mouse T-cell proteome, ABPP-SILAC LC-MS ratio, at 1 µM, hits give low values

- remaining activity ratio (inhibitor/DMSO) (AADACL1): 1.46 (inactive)
- remaining activity ratio (inhibitor/DMSO) (ABHD12): 1.21 (inactive)
- remaining activity ratio (inhibitor/DMSO) (ACOT1): 1.23 (inactive)
- remaining activity ratio (inhibitor/DMSO) (ACOT2): 1.25 (inactive)
- remaining activity ratio (inhibitor/DMSO) (APEH): 1.11 (inactive)
- remaining activity ratio (inhibitor/DMSO) [1]: 1.08 (inactive)
- remaining activity ratio (inhibitor/DMSO) (DPP4): 1.17 (inactive)
- remaining activity ratio (inhibitor/DMSO) (DPP8): 1.1 (inactive)
- remaining activity ratio (inhibitor/DMSO) (DPP9): 1.12 (inactive)
- remaining activity ratio (inhibitor/DMSO) (ESD): 1.24 (inactive)
- remaining activity ratio (inhibitor/DMSO) (FAAH): 1.25 (inactive)
- remaining activity ratio (inhibitor/DMSO) (FASN): 1.14 (inactive)
- remaining activity ratio (inhibitor/DMSO) (LIPE): 0.88 (inactive)
- remaining activity ratio (inhibitor/DMSO) (LYPLA2): 0.01
- remaining activity ratio (inhibitor/DMSO) [2]: 1.06 (inactive)
- remaining activity ratio (inhibitor/DMSO) (PAFAH1B2): 1.23 (inactive)
- remaining activity ratio (inhibitor/DMSO) (PAFAH1B3): 1.09 (inactive)
- remaining activity ratio (inhibitor/DMSO) (PNPLA6): 1.03 (inactive)
- remaining activity ratio (inhibitor/DMSO) (PNPLA7): 1.12 (inactive)
- remaining activity ratio (inhibitor/DMSO) (PPME1): 1.34 (inactive)
- remaining activity ratio (inhibitor/DMSO) (PRCP): 1.56 (inactive)
- remaining activity ratio (inhibitor/DMSO) [3]: 1.14 (inactive)
- remaining activity ratio (inhibitor/DMSO) [4]: 1.12 (inactive)
- remaining activity ratio (inhibitor/DMSO) (SEC23IP): 1.53 (inactive)
- remaining activity ratio (inhibitor/DMSO) (TPP2): 1.2 (inactive)
SMILES: COc1ccc(N2CCN(C(=O)c3cc4c(s3)-c3ccccc3S(=O)(=O)C4)CC2)cc1
